Assay results taken from US12606541B2, “PPARg modulators and methods of use” (Eisai R&D Management Co., Ltd., priority 2020, dated 2026).
Where two headings read alike, the source gives them in different places.

What was measured:
[1] = target: T1, His6-TEV-PPARγ-(234-505) (Homo sapiens, UniProt P37231); test: TR-FRET Assay to Measure Co-R Peptide Recruitment to PPARγ; format: biochemical; settings: Co-R peptide (SMRT-ID2) recruitment; top final concentration 20 μM; read-out: TR-FRET i-Ag; AC50
T1 construct: The His6-TEV-PPARγ-(234-505) protein for assay was expressed and purified; TEV cleavage site (N); made in house
T1 sequence (P37231 234-505): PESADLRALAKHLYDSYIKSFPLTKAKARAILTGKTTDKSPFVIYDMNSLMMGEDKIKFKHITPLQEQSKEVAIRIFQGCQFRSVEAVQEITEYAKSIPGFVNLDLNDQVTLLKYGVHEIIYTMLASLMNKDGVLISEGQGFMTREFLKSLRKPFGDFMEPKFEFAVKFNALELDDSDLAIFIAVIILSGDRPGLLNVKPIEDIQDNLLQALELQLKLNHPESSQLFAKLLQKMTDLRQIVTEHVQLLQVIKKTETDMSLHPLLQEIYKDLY
Method in brief: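 Corepressor recruitment is measured by adding terbium-labeled anti-His antibody and FITC SMRT-ID2 peptide, at 5 and 200 nM final, after a 20-minute room-temperature protein–compound incubation. After one further hour, signal is converted to percent response between DMSO and 500 nM T0070907 wells.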

[2] = tested on: UM-UC-9 engineered cells; test: Cell proliferation / short-term viability assay, CellTiter-Glo 144 h; format: cell-based, human; settings: read-out: CTGlo 144 h UMUC9.5, G150
Method in brief: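 Viability read by CellTiter-Glo 2.0 luminescence at day 7 versus DMSO-vehicle wells and a T0 plate measured on day 0. Cells: UM-UC-9 engineered assay-ready stocks, 500 cells/well in high-glucose DMEM with 10% FBS, 37° C, 5% CO2.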

AC50 [1] [nM]	SMILES	IC50 ([2]; Homo sapiens, UM-UC-9, 144 h) [nM]	IC50 [2] [nM]
67.4	COc1cc(-c2cc(C(=O)N3CC[C@H](C(=O)NC4CCC(N5CCOCC5)CC4)CC34CC4)n[nH]2)c(F)cn1 (single isomer, unassigned) [Example 418-A]	152	–
4.4	COc1cc(-c2cc(C(=O)N3CC[C@H](C(=O)NCc4ccc5[nH]nc(F)c5c4)CC34CC4)n[nH]2)c(F)cn1 (single isomer, unassigned) [Example 288-A]	0.9	–
160	COc1cc(-c2cc(C(=O)N3CC[C@H](C(=O)NC(C)C45CCC(O)(CC4)CC5)CC34CC4)n[nH]2)c(F)cn1 (single isomer, unassigned) [Example 411-A]	–	527

The remaining lines, values behind:

SMILES	AC50 [1] [nM]	IC50 ([2]; Homo sapiens, UM-UC-9, 144 h) [nM]	IC50 [2] [nM]
COc1cc(-c2cc(C(=O)N3CCC(C(=O)Nc4cnn(CC(F)(F)F)c4)CC3)n[nH]2)c(Cl)cn1 [Example 126, 1-(5-(5-chloro-2-methoxypyridin-4-yl)-1H-pyrazole-3-carbonyl)-N-(1-(2,2,2-trifluoroethyl)-1H-pyrazol-4-yl)piperidine-4-carboxamide]	707	2460	–
CCc1cc(-c2cc(C(=O)N3CCC(C(=O)NCc4ncc(F)cc4Cl)CC34CC4)n[nH]2)c(F)cn1 (single isomer, unassigned) [Example 483-B]	0.9	–	7.2
COc1cc(-c2cc(C(=O)N3CCC(C(=O)NC(C)c4ncc(F)cc4Cl)CC34CC4)n[nH]2)c(F)cn1 (mixture of isomers) [Example 377, (S)—N—((R)-1-(3-chloro-5-fluoropyridin-2-yl)ethyl)-4-(5-(5-fluoro-2-methoxypyridin-4-yl)-1H-pyrazole-3-carbonyl)-4-azaspiro[2.5]octane-7-carboxamide and (S)—N—((S)-1-(3-chloro-5-fluoropyridin-2-yl)ethyl)-4-(5-(5-fluoro-2-methoxypyridin-4-yl)-1H-pyrazole-3-carbonyl)-4-azaspiro[2.5]octane-7-carboxamide]	20.2	–	25.9
COc1cc(-c2cc(C(=O)N3CCC(C(=O)Nc4c(F)ccc5ccnn45)CC34CC4)n[nH]2)c(F)cn1 (racemic) [Example 468, (R)-4-(5-(5-fluoro-2-methoxypyridin-4-yl)-1H-pyrazole-3-carbonyl)-N-(6-fluoropyrazolo[1,5-a]pyridin-7-yl)-4-azaspiro[2.5]octane-7-carboxamide and (S)-4-(5-(5-fluoro-2-methoxypyridin-4-yl)-1H-pyrazole-3-carbonyl)-N-(6-fluoropyrazolo[1,5-a]pyridin-7-yl)-4-azaspiro[2.5]octane-7-carboxamide]	8.3	–	80
